Results reported in patent US12458604B2, “Methods of lipid nanoparticle manufacture and compositions derived therefrom” (George Mason Research Foundation, Inc., priority 2020, dated 2025).

Assays:
[1] = pKa of the ionizable lipid measured in the LNP (TNS pKa); assay type: physicochemical; settings: for pKa: lipid nanoparticle (LNP) containing the ionizable lipid; for DpKa: ACD pKa versus TNS pKa
Text: In some embodiments, the “LNP lipids” are MC3, DLin, and/or KC2 as shown below. The table highlights the pKa of the ionizable lipid measured in the LNP (TNS pKa) versus the pKa in aqueous medium predicated by a commercial software ACDLabs Percepta.:
In one embodiment, the amount of nucleic acid is represented by the LNP mole ratio of the amine on the ionizable lipid to the phosphate groups on the nucleic acid backbone and is typically about 3 to about 6. In one embodiment, the pKa of the LNP is in the about 6 to about 7 range corresponding to the pH in the early endosome. A link between the pKa of ionizable lipid in the LNP and gene silencing efficiency has shown that an LNP pKa in the range of about 6 to about 7 produced more silencing for the ionizable lipid DLinDMA and was associated with promoting lipid structures that could disrupt the membrane of the endosome. The pKa of the LNP may be measured using the pH-dependence of fluorescence enhancement of the anionic dye TNS.

[2] = system: HEK293 cells; test: Firefly Luciferase Assay for mRNA Delivery Efficiency; assay type: cell-based; settings: for potency when sodium acetate concentration was reduced from 60 mM to 25 mM / potency when mixed at the higher concentration 1.5 mg/ml vs the lower concentration 0.25 mg/ml: Example 12; for potency when mixed at the higher concentration 1.5 mg/ml vs the lower concentration 0.25 mg/ml / LNP potency at the higher versus lower mixing concentration: same dose; for LNP potency at the higher versus lower mixing concentration: NP 4, sodium acetate pH 4
Experimental: Summary: LNPs were formulated using total lipid concentration of 6 to 27 mM comprised of KC2/DSPC/Cholesterol/PEG-DMG (50:10:38.5:1.5 mol %). Each one of the lipids were solubilized in ethanol until a clear solution was observed. The four lipids were combined to get 50 mM total lipid concentration (25/5/19.25/0.75 mM respectively), then serial dilutions were done to reach 6 to 27 mM. […] Purified mRNA was ethanol precipitated, washed and resuspended in nuclease-free water to reach concentrations of 1 mg/mL. […] 16 μl Lipid Mix and 341 mRNA solution were mixed on Setting 3 and ejected into 48 μl 1×DPBS pH 7.4. The formed LNPS were then diluted into an additional 96 μl 1×DPBS pH 7.4. LNPs were then dialyzed against 1×DPBS pH 7.4 for 4×1 hr. LNPs were then diluted so that 32 ul contained 200 ng and 12K HEK293 cells were transfected with the same 200 ng dose but manufactured at different concentrations in the microfluidic mixer.
A. Firefly Luciferase Assay for mRNA Delivery Efficiency. After 24 hours of transfection, transfected cells were conditioned to room temperature for 30 minutes prior the Firefly Luciferase Assay. Quantilum Recombinant Luciferase standard curve was prepared in 10% EMEM in 5-fold serial dilutions. 50 ul of each standard point from the range of 3.9×10^−5 mg/ml to 4.88×10^−3 mg/ml were included in the microplate as a positive enzyme activity control (data not shown) to maintain a linearity of 10^7 RLU/mg/ml. The ONE-Glo substrate, previously conditioned to room temperature for at least 4 hours, was added to each untransfected, transfected and Quantilum wells in a ratio 1:1. Assay plates were incubated for 3 minutes in darkness and immediately introduced into the Cytation 5 Cell Imaging Multi-Mode Reader (Biotek) to read luminescence.
Each one of the lipids were solubilized in ethanol until a clear solution was observed. […] To prepare 75 mM total lipid concentration (37.5/7.5/28.88/1.13 mM respectively), KC2/DL-ADDE-C2C2-PipZ/BODD-ADDE-C2C4-PipZ and Cholesterol were mixed first, same for DSPC and PEG to solubilize both solutions in ethanol before combining them to reach 75 mM. […] Purified mRNA was ethanol precipitated, washed and resuspended in nuclease-free water to reach concentrations of 4.4 mg/ml. […] 16 μl Lipid Mix and 341 mRNA solution were mixed on Setting 3 and ejected into 48 μl 1×DPBS pH 7.4. The formed LNPS were then diluted into an additional 96 μl 1×DPBS pH 7.4. LNPs were then dialyzed against 1×DPBS pH 7.4 for 4×1 hr. LNPs were then diluted so that 32 ul contained 25-200 ng and 12K HEK293 cells were transfected with the same dose but manufactured at different concentrations in the microfluidic mixer.

[3] = system: SARS-CoV-2; test: In vivo protection against viral challenge; settings: SARS-CoV-2 immunogen mRNA, mice, I.M.
Experimental: Summary: LNPs were formulated using total lipid concentration of 10-75 mM comprised of several ionizable/DSPC/Cholesterol/PEG-DMG (47-50:10-13:37-38.5:1.5-2 mol %). Each one of the lipids were solubilized in ethanol until a clear solution was observed. The four lipids were combined to get 75 mM total lipid concentration then serial dilutions were done to reach 10 mM. Codon optimized 2019-nCoV Wuhan S-2P (Covid) sequence was cloned into an mRNA plasmid (optimized 3′ and 5′ UTR and containing a 101 polyA tail (SEQ ID NO: 4)) for co-transcriptional capping, in vitro transcribed using N1 methyl pseudouridine modified nucleoside and cellulose purified to remove dsRNA. Purified mRNA was ethanol precipitated, washed and resuspended in nuclease-free water to reach concentrations of 5.5 mg/ml. […] 16 μl Lipid Mix and 32 μl mRNA solution were mixed on Setting 3 and ejected into 48 μl 1×DPBS pH 7.4. The formed LNPS were then diluted into an additional 96 μl 1×DPBS pH 7.4. LNPs were then dialyzed against 1×DPBS pH 7.4 for 4×1 hr. LNPs were then diluted so that 32 ul contained 25-200 ng and 12K HEK293 cells were transfected with the same dose but manufactured at different concentrations in the microfluidic mixer.
A: In vivo protection against viral challenge—Survival proportion, Weight and Temperature in Challenge model. […]

[4] = pKa of the ionizable lipid measured in the LNP; published ionizable lipids; cited from earlier work
[5] = system: mice; test: In vivo and ex vivo Firefly Luciferase expression (IVIS); settings: for higher potency in vivo of buffer-free assembly compared to using a buffer: by IVIS, high lipid and mRNA mixing concentrations, 0.25 protons per ionizable lipid, NP 4
Experimental: C: In vivo Firefly Luciferase expression in IM administration. 5 ug of encapsulated mRNA were injected in mice in intramuscular (I.M.), intradermal (ID.) and intravenous (I.V.) injections. ROIs were calculated using the IVIS system. Imaging were performed at 4 and 20 hours.
C: In vivo Firefly Luciferase expression in IM administration. 0.5-5 ug of total mRNA was injected in mice in intramuscular (I.M.) injections. Luciferin was administrated intraperitoneally at 4 hours post-injection and luciferase expression monitored by live animal imaging at 4 and 24 hours. ROIs were calculated using the IVIS system.
D: In vivo and ex vivo Firefly Luciferase expression in IM administration for LNPs mixed at 1.5 mg/ml. 1 ug of total mRNA was injected in mice in intramuscular (I.M.) injections. Luciferin was administrated intraperitoneally at 4 hours post-injection and luciferase expression monitored by live animal imaging at 4 hours. ROIs were calculated using the IVIS system. For Ex Vivo, organs were extracted and imaged immediately after In Vivo imaging.
E: In vivo and ex vivo Firefly Luciferase expression in IV administration for LNPs mixed at 1.5 mg/ml. 1 ug of total mRNA was injected in mice in […] (I.V.) injections. Luciferin was administrated intraperitoneally at 4 hours post-injection and luciferase expression monitored by live animal imaging at 4 hours. ROIs were calculated using the IVIS system. For Ex Vivo, organs were extracted and imaged immediately after In Vivo imaging.

Row | Compound | pKa [1] | potency when sodium acetate concentration was reduced from 60 mM to 25 mM [2] | potency when mixed at the higher concentration 1.5 mg/ml vs the lower concentration 0.25 mg/ml [2] | DpKa [1] | Protective against lethal challenge ([3]; 0.5 ug) | TNS pKa [4] | LNP potency at the higher versus lower mixing concentration ([2]; in vitro) | Protective against lethal challenge ([3]; 0.25 ug) | higher potency in vivo of buffer-free assembly compared to using a buffer ([5]; IM administration) | higher potency in vivo of buffer-free assembly compared to using a buffer ([5]; IV administration) | potency on increasing pH from 4 to 5 ([2]; Example 13, 1.5 mg/ml mRNA in 25 mM NaOAc) | delivery efficiency at the same dose with increased mixing concentration ([5]; in vivo, 5 ug of encapsulated mRNA, lipids 5 to 100 mM, mRNA 0.1 to 2 mg/ml) | LNP potency increase when reducing sodium acetate from 50 mM to 25 mM ([2]; 1.5 mg/ml of mRNA, pH 4, NP 4) | delivery efficiency at the same dose with increased mixing concentration ([2]; in vitro, KC2/DSPC/Cholesterol/PEG-DMG LNPs, NP 4) | LNP potency increase when reducing sodium acetate concentration from 25 mM to 10 mM ([2]; mRNA concentration of 0.25 mg/ml, pH 4, NP 4)
1 | CCCCC/C=C\C/C=C\CCCCCCCCOC(=O)CCN(CCC(=O)OCCCCCCCC/C=C\C/C=C\CCCCC)CCN1CCN(C)CC1 (racemic) [DL-C2/C2-PipZ] | ~7.5 | did not show either effect | did not | – | – | – | – | – | – | – | – | – | – | – | –
2 | CCCCC/C=C\C/C=C\CCCCCCCCOCC(CN(C)C)OCCCCCCCC/C=C\C/C=C\CCCCC (centres unmarked) [DLin] | – | – | – | 1.8 | – | – | – | – | – | – | – | – | – | – | –
3 | CCCCC/C=C\C/C=C\CCCCCCCCC(CCCCCCCC/C=C\C/C=C\CCCCC)OC(=O)CCCN(C)C [MC3] | ~6.5 | increased potency | large increase in potency | 3 | 100% | 6.4 | LNP potency increases | – | – | – | – | – | – | – | –
4 | CCCCCCCCC(CCCCCCCC)COC(=O)CCN(CCCCN1CCN(C)CC1)CCC(=O)OCC(CCCCCCCC)CCCCCCCC [BOD-C2/C4-PipZ] | ~6.5 | increased potency | large increase in potency | – | – | – | LNP potency increases | 100% | 3 × | 3 × | increases potency | – | – | – | –
5 | CCCCC/C=C\C/C=C\CCCCCCCCC1(CCCCCCCC/C=C\C/C=C\CCCCC)OCC(CCN(C)C)O1 (centres unmarked) [KC2] | ~6.5 | increased potency | large increase in potency | 2.6 | – | 6.7 | LNP potency increases | – | – | – | – | increased delivery efficiency | 44% | increased delivery efficiency at the same dose only at the lowest NaOAc concentration of 50 mM | 2.2 ×
